The source of these data is patent US6680335B2, “Methods of modulating protein tyrosine kinase function with substituted indolinone compounds” (Sugen, Inc., priority 1998, dated 2004).

One assay deals with T1, FLK-1 receptor (Mus musculus, UniProt P35918).
T1 construct: expressed in transfected cells; host or cells: NIH3T3 C7#3 cells
The assay is described as follows: ELISA assay measuring the kinase activity of the FLK-1 receptor in cells engineered to express FLK-1. The class given is cell-based. The note with it: FLK-1 expressing NIH3T3 C7#3 cells, VEGF stimulated; for inhibition at 100 µM: compound at 100 μM. How it is done:
An ELISA assay was conducted to measure the kinase activity of the FLK-1 receptor and more specifically, the inhibition or activation of TK activity on the FLK-1 receptor. Specifically, the following assay was conducted to measure kinase activity of the FLK-1 receptor in cells genetically engineered to express FLK-1.
(11) NIH3T3 C7#3 Cells (FLK-1 expressing cells);
The following protocol was used for conducting the assay:
1. Coat Corning 96-well elisa plates with 1.0 μg per well Cappel Anti-rabbit IgG antibody in 0.1 M Na2CO3 pH 9.6. Bring final volume to 150 μL per well. Coat plates overnight at 4° C. Plates can be kept up to two weeks when stored at 4° C.
2. Grow cells in Growth media (DMEM, supplemental with 2.0 mM L-Glutamine, 10% FBS) in suitable culture dishes until confluent at 37° C., 5% CO2.
3. Harvest cells by trypsinization and seed in Corning 25850 polystyrene 96-well roundbottom cell plates, 25.000 cells/well in 200 μL of growth media.
4. Grow cells at least one day at 37° C., 5% CO2.
5. Wash cells with D-PBS 1×.
6. Add 200 μL/well of starvation media (DMEM, 2.0 mM 1-Glutamine, 0.1% FBS). Incubate overnight at 37° C., 5% CO2.
7. Dilute Compounds 1:20 in polypropylene 96 well plates using starvation media. Dilute dimethylsulfoxide 1:20 for use in control wells.
8. Remove starvation media from 96 well cell culture plates and add 162 μL of fresh starvation media to each well.
9. Add 18 μL of 1:20 diluted Compound dilution (from step 7) to each well plus the 1:20 dimethylsulfoxide dilution to the control wells (+/−VEGF), for a final dilution of 1:200 after cell stimulation. Final dimethylsulfoxide is 0.5%. Incubate the plate at 37° C., 5% CO2 for two hours.
10. Remove unbound antibody from ELISA plates by inverting plate to remove liquid. Wash 3 times with TBSW+0.5% ethanolamine, pH 7.0. Pat the plate on a paper towel to remove excess liquid and bubbles.
11. Block plates with TBSW+0.5% Ethanolamine, pH 7.0, 150 μL per well. Incubate plate thirty minutes while shaking on a microliter plate shaker.
12. Wash plate 3 times as described in step 10.
13. […] Bring final volume to 150 μL/well with TBSW+0.5% ethanolamine pH 7.0. Incubate plate for thirty minutes while shaking.
14. Add 180 μL starvation medium to the cells and stimulate cells with 20 μL/well 10.0 mM sodium ortho vanadate and 500 ng/mL VEGF (resulting in a final concentration of 1.0 mM sodium ortho vanadate and 50 ng/mL VEGF per well) for eight minutes at 37° C., 5% CO2. Negative control wells receive only starvation medium.
15. After eight minutes, media should be removed from the cells and washed one time with 200 μL/well PBS.
16. Lyse cells in 150 μL/well HNTG while shaking at room temperature for five minutes. HNTG formulation includes sodium ortho vanadate, sodium pyro phosphate and EDTA.
17. Wash ELISA plate three times as described in step 10.
18. Transfer cell lysates from the cell plate to ELISA plate and incubate while shaking for two hours. To transfer cell lysate pipette up and down while scrapping the wells.
19. Wash plate three times as described in step 10.
20. Incubate ELISA plate with 0.02 μg/well UB40 in TBSW+05% ethanolamine. Bring final volume to 150 μL/well. Incubate while shaking for 30 minutes.
21. Wash plate three times as described in step 10.
22. Incubate ELISA plate with 1:10,000 diluted EIA grade goat anti-mouse IgG conjugated horseradish peroxidase in TBSW+0.5% ethanolamine, pH 7.0. Bring final volume to 150 μL/well. Incubate while shaking for thirty minutes.
23. Wash plate as described in step 10.
24. Add 100 μL of ABTS/H2O2 solution to well. Incubate ten minutes while shaking.
25. Add 100 μL of 0.2 M HCl for 0.1 M HCl final to stop the color development reaction. Shake 1 minute at room temperature. Remove bubbles with slow stream of air and read the ELISA plate in an ELISA plate reader at 410 nm.
(§1) The IC50 values were measured for several of the compounds of the invention.
(An ELISA detects its analyte on a solid surface through an enzyme-linked reagent.)

The target of the next assay is T2, pyk-2 protein kinase (Homo sapiens, UniProt Q14289).
T2 construct: made in house; host or cells: Schizosaccharomyces pombe strain SP200, pRSP expression plasmids
The assay is described as follows: Assay measuring PYK-2 protein kinase activity (phosphorylation of a biotinylated peptide). The class given is biochemical. The note with it: pyk-2 from transformed yeast lysate, 5 μM ATP; compound at 100 μM. Here is the method:
This assay is used to determine pyk-2 protein kinase activity measuring phosphorylation of a biotinylated peptide as the readout.
a. Yeast transformed with pyk-2.
b. Cell lysates: Yeast cells expressing pyk-2 are pelleted, washed once with water, re-pelleted and stored at −80° C. until use.
(§2) c. N-terminus biotinylated […] is prepared by standard procedures well known to those skilled in the art.
(§3) h. […] S. Pombe strain SP200 (h-s leul.32 ura4 ade21O) was grown as described and transformations were pRSP expression plasmids were done by the lithium acetate method (Superti-Furga, supra). Cells were grown in the presence of 1 μM thiamine to repress expression from the nmtl promoter or in the absence of thiamine to induce expression.
a. Preparation of pyk-2 coated ELISA plate.
1. Coat ELISA plate with 0.5 μg/well anti-pyk-2 mab in 100 μL of pH 9.6 sodium carbonate buffer at 4° C. overnight.
(§4) 2. Wash wells once with PBS.
(§5) 3. Block plate with 0.15 mL 5% milk in PBS for 30 min. at room temperature.
(§6) 4. Wash plate 5× with PBS.
5. Add 10 μg/well of pyk-2 transformed yeast lysates diluted in Lysis Buffer (0.1 mL total volume per well). (Amount of lysate may vary between hatches.) Shake plate for 20 minutes at room temperature.
(§7) b. Preparation of phosphotyrosine antibody-coated ELISA plate.
(§8) 1. 4G10 plate: coat 0.5 μg/well 4G10 in 100 μL PBS overnight at 4° C. and block with 150 μL of 5% milk in PBS for 30 minutes at room temperature.
(§9) c. Kinase assay procedure.
(§10) 1. Remove unbound proteins from steps 1-7, above, and wash plates 5× with PBS.
2. Add 0.08 mL Kinase Reaction Mixture per well (containing […] of 10×Kinase Buffer and 10 pM (final concentration) biotin-[…] per well diluted in water.
(§11) 3. Add 10 μL of compound diluted in water containing 10% DMSO and pre-incubate for 15 minutes at room temperature.
(§12) 4. Start kinase reaction by adding 10 μL/well of 0.05 mM ATP in water (5 μM ATP final).
(§13) 5. Shake ELISA plate for 15 min. at room temperature.
(§14) 6. Stop kinase reaction by adding 10 μL of 0.5 M EDTA per well.
(§15) 7. Transfer 90 μL supernatant to a blocked 4G10 coated ELISA plate from section B, above.
(§16) 8. Incubate for 30 min. while shaking at room temperature.
(§17) 9. Wash plate 5× with TBST.
(§18) 10. Incubate with Vectastain ELITE ABC reagent (100 μL/well) for 30 min. at room temperature.
(§19) 11. Wash the wells 5× with TBST.
(§20) 12. Develop with Turbo TMB.
as §1

For a further assay, the target named is T3, src protein kinase (Gallus gallus, UniProt P00523).
T3 construct: made in house; host or cells: Schizosaccharomyces pombe strain SP200, pRSP expression plasmids
The assay is described as follows: Assay measuring SRC protein kinase activity (phosphorylation of a biotinylated peptide). Type of assay: biochemical. The note with it: src from transformed yeast lysate, 5 μM ATP; compound at 100 μM. Here is the method: This assay is used to determine src protein kinase activity measuring phosphorylation of a biotinylated peptide as the readout.
a. Yeast transformed with src.
b. Cell lysates: Yeast cells expressing src are pelleted, washed once with water, re-pelleted and stored at −80° C. until use.
as §2, §3
a. Preparation of src coated ELISA plate.
1. Coat ELISA plate with 0.5 μg/well anti-src mab in 100 μL of pH 9.6 sodium carbonate buffer at 4° C. overnight.
as §4, §5, §6
5. Add 10 μg/well of src transformed yeast lysates diluted in Lysis Buffer (0.1 mL total volume per well). (Amount of lysate may vary between hatches.) Shake plate for 20 minutes at room temperature.
as §7, §8, §9, §10
2. Add 0.08 mL Kinase Reaction Mixture per well (containing 10 μL of 10×Kinase Buffer and 10 μM (final concentration) biotin-[…] per well diluted in water.
as §11, §12, §13, §14, §15, §16, §17, §18, §19, §20, §1

Structures are written as SMILES.

T2 sequence (Q14289 whole entry): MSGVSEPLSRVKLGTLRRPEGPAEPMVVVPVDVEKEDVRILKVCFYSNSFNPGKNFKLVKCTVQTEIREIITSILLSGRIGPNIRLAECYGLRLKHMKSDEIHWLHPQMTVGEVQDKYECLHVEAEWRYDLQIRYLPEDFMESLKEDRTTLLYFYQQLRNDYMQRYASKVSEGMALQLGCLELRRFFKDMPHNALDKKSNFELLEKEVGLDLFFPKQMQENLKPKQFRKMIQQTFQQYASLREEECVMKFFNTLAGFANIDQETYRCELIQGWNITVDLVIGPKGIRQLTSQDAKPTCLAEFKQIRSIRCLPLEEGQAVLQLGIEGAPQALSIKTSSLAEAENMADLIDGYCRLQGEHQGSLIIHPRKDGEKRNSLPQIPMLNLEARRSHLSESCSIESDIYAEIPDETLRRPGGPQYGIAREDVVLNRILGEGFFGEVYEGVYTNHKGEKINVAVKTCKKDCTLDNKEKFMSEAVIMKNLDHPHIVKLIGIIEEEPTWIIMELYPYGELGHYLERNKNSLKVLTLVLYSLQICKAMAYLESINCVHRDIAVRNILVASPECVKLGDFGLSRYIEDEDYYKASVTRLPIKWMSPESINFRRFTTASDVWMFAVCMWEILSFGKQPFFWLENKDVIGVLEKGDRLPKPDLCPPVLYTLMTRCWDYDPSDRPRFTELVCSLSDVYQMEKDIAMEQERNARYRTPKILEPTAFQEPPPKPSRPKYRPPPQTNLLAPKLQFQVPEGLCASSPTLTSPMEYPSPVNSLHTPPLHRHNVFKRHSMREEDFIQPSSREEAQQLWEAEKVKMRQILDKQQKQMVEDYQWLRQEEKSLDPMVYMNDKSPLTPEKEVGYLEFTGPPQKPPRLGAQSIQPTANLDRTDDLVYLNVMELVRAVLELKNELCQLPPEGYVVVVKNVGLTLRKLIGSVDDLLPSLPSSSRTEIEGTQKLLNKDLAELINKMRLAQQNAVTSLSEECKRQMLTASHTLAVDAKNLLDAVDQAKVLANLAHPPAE
T1 sequence (P35918 20-1345): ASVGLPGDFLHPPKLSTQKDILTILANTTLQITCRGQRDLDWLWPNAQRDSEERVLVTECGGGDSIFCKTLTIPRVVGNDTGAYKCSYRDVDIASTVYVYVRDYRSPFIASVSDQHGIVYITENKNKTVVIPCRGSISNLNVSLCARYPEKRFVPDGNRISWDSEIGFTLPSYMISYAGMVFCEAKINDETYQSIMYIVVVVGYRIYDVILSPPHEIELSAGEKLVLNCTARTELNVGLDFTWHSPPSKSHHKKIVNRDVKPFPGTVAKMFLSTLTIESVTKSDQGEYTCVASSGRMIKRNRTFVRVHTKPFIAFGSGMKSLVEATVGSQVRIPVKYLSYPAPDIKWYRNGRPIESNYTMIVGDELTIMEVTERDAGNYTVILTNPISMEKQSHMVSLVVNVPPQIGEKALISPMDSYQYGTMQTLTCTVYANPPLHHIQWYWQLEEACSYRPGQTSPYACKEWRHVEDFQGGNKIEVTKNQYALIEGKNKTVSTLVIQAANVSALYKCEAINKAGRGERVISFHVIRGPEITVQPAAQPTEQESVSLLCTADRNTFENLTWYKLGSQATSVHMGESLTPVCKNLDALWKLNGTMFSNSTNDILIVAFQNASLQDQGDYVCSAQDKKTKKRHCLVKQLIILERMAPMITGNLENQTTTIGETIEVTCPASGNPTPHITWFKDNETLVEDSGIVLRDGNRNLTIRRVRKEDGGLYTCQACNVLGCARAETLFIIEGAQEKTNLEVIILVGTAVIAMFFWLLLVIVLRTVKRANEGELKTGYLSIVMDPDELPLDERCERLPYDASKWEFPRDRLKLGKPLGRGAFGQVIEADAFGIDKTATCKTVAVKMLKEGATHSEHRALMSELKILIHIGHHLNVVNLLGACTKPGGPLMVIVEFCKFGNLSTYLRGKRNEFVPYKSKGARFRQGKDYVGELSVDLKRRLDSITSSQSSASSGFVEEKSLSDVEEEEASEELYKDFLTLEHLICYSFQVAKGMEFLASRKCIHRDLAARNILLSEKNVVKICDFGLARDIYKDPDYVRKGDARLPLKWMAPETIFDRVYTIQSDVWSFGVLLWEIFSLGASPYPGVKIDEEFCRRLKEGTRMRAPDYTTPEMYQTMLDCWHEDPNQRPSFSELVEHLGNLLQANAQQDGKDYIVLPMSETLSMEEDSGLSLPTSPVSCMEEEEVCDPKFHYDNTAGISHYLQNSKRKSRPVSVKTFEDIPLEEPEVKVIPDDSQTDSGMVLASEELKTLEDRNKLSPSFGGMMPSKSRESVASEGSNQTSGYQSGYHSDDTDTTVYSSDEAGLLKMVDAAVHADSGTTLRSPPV

`CNS(=O)(=O)c1ccc2c(c1)C(=Cc1[nH]c3ccccc3c1C)C(=O)N2` [IN-003, 3-(3-Methyl-1H-indol-2-ylmethylene)-2-oxo-2,3-dihydro-1H-indole-5-sulfonic acid methylamide]: the inhibition at 100 µM against FLK-1 receptor is 11%; against pyk-2 protein kinase, 67.5%.

`O=C1Nc2ccc(/N=C/c3cc4ccccc4[nH]3)cc2/C1=C/c1cc2ccccc2[nH]1` [IN-020, 3-(1H-indol-2-ylmethylene)-5-[(1H-indol-2-ylmethylene)-amino]-1,3-dihydro-indol-2-one]: the inhibition at 100 µM against src protein kinase was 7.62%; at pyk-2 protein kinase it was 64.3%. For the same molecule, the IC50 at FLK-1 receptor (cells without % or + sign) was over 100 µM.

As to `O=C1Nc2ccc(Br)cc2C1=Cc1cc2ccccc2[nH]1` [IN-014, 5-Bromo-3-(1H-indol-2-ylmethylene)-1,3-dihydro-indol-2-one], the inhibition at 100 µM at src protein kinase was -2.4%; at FLK-1 receptor, 10%; against pyk-2 protein kinase, -14%.

With `Cc1c(C=C2C(=O)Nc3ccc(S(=O)(=O)N(C)C)cc32)[nH]c2ccccc12` (mixture of isomers) [IN-004, 3-(3-Methyl-1H-indol-2-ylmethylene)-2-oxo-2,3-dihydro-1H-indole-5-sulfonic acid dimethylamide], the inhibition at 100 µM against src protein kinase is -4.6%; against FLK-1 receptor, 7%; at pyk-2 protein kinase, 44.4%.

As for `Cc1cccc2c1C(=Cc1cc3ccccc3[nH]1)C(=O)N2` [IN-015, 3-(1H-indol-2-ylmethylene)-4-methyl-1,3-dihydro-indol-2-one], the inhibition at 100 µM was found to be 16% against src protein kinase, 26% at FLK-1 receptor and 3.9% against pyk-2 protein kinase.

A word on the inhibition: it is the drop in the measured response relative to a control, in per cent. The term IC50 denotes the concentration needed to halve the response being measured.
